The conditions of data set [1]: aqueous solutions as described in WO03/43613, storage; cited from earlier work.
In data set [2] the test system is polymorphonuclear leucocytes. To be noted: WO 03/043613 A1; cited from earlier work.
Data set [3] concerns mononuclear leucocytes. The note with it: WO 03/043613 A1; cited from earlier work.
Data set [4] concerns human peripheral blood leukocytes. Briefly: chemiluminescence of peripheral blood leukocytes (oxidative burst response). It is filed as cell-based. The note with it: fairly low concentrations. From the text: Chemiluminescence is a measure of oxidative burst response. […] As the actual tissue damage caused by inflammatory cells such as PMN's and monocytes/macrophages, through the release of proteolytic and hydrolytic enzymes as well as toxic reactive oxygen radicals are activated in the tissue and joints, the isolated compound should be a potent inhibitor of the oxidative burst response of the human peripheral blood polymorphonuclear leukocytes, the most important and abundant inflammatory cells. It is therefore believed that the glycosides of mono- or diacylglycerol compounds, especially GOPO, are responsible for the anti inflammatory effects of rose hip extracts.

Each structure is given as a SMILES string.

With `CC/C=C\C/C=C\C/C=C\CCCCCCCC(=O)OCC(CO[C@@H]1O[C@H](CO)[C@H](O)[C@H](O)[C@H]1O)OC(=O)CCCCCCC/C=C\C/C=C\C/C=C\CC` (stereo partly drawn) [GOPO, 3-β-D-galactopyranosyloxy-2-(octadeca-9Z,12Z,15Z-trienoyloxy)propanyl octadeca-9Z,12Z,15Z-trienoate], in data set [1], the “stability in aqueous solutions” value is recorded as “lack stability”. The “chemiluminescence of polymorphonuclear leucocytes” value in data set [2] is “alleviating”. Besides, the “chemotaxis of mononuclear leucocytes” value in data set [3] is on record as “alleviating”. For the same compound, the “chemiluminescence of human peripheral blood leukocytes” value in data set [4] was “inhibited”.
